Consider 7 compounds from publication PMC6627850, “Identification of Plasmodium falciparum Mitochondrial Malate: Quinone Oxidoreductase Inhibitors from the Pathogen Box” (Genes, 2019).

Each structure is given as a SMILES string. Where “and” joins values, the source holds several entries; their conditions need not be identical. Equal entries are not always repeated. Where two headings read alike, the source gives them in different places. Some results are limits rather than exact numbers.

In one data set the target is recombinant PfMQO (Plasmodium falciparum, UniProt C6KT09). As to the kind of experiment: biochemical. The following applies: for inhibition at 10 µM: read-out: Inhibition (%) against recombinant PfMQO; for IC50: serial dilution 10 to 0.0003 μM, quadruplicate, ± standard deviation.
A further data set relates to P. falciparum 3D7 strain. Briefly: Plasmodium falciparum growth inhibition assay (diaphorase-coupled LDH assay, 72 hours). It counts as cell-based. The following applies: for IC50: Plasmodium falciparum, read-out: IC50 growth of P. falciparum 3D7 strain in culture (ABS); for Growth inhibition of parasite cells (result in words): P. falciparum 3D7, LDH assay. Here is the method: Human RBCs were received from Japanese Red Cross Society. The experiments were performed under the guidelines of the ethical committee in The University of Tokyo (permission no. 10050) and Nagasaki University (permission no. 19). Parasite culture was synchronized with 5% (w/v) D-sorbitol as previously described. Ring stage parasites (100 μL/well) were placed in a 96-well plate at 0.3% parasitemia. […] As a control, wells containing culture medium and RBCs alone were prepared. […] The absorbance of each well was measured at 655 nm using SpectraMax Paradigm® Multi-Mode microplate reader (Molecular Devices, San Jose, CA, USA).

For another data set, the system named is ABS parasites. Further details: method as in PMID 28674055. The following applies: read-out: IC50 against the ABS parasites, previous study; cited from earlier work.
A further data set relates to HepG2. Details: method as in earlier work. The following applies: ref https://www.mmv.org/mmv-open/pathogen-box/about-pathogen-box#composition; cited from earlier work.
The test system of another data set is Cryptococcus neoformans. The following applies: recently reported; cited from earlier work.
The test system of a further data set is Candida albicans. The following applies: recently reported; cited from earlier work.
Data set [1] has as its system stage IV gametocyte cells. Further details: method as in PMID 28674055. The following applies: cited from earlier work.
Setting [2] is: 10 μM compound, average of 4 independent experiments.
Setting [3] is: read-out: IC50 against recombinant PfMQO.
The mark [4] stands for this setting: 3D7, LDH assay, 72 hours incubation, average of three independent experiments ± SD.

recombinant PfMQO, sequence (C6KT09 entry or part of it): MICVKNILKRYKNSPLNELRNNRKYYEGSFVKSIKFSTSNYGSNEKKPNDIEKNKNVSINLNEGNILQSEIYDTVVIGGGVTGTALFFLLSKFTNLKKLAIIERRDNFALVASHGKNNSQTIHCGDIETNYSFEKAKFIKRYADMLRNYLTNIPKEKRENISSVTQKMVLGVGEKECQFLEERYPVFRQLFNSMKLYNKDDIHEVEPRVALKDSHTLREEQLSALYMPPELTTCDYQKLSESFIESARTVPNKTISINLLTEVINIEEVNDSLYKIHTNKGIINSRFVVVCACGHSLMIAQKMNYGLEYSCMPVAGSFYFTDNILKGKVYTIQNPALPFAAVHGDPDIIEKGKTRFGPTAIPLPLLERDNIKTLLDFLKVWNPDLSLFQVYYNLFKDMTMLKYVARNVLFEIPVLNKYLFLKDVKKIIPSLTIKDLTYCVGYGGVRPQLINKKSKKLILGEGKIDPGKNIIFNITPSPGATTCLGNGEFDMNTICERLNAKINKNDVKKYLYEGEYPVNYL

For the compound `N=C(N)Nc1ccc(-c2ccc(-c3ccc(NC(=N)N)c(Cl)c3)o2)cc1Cl` [MMV688271], the inhibition at 10 µM on recombinant PfMQO (setting [2]) came to 80.5%. Besides, the IC50 at recombinant PfMQO (setting [3]) is < 5 µM and 1.15 µM; in the data set on P. falciparum 3D7 strain (setting [4]) it was 1.03 µM; with ABS parasites, 1210 nM. Further, the “HepG2 cytotoxicity CC20” value in the data set on HepG2 is 13.5 µM. In addition, in the data set on Cryptococcus neoformans, the “Antifungal effect against Cryptococcus neoformans” value is listed as “antifungal effect”. In the data set on Candida albicans, the “Antifungal effect against Candida albicans” value is “antifungal effect”.
Consider `O=C(NCCc1c[nH]c2ccccc12)c1cc2ccccc2oc1=O` [MMV676539], for which the inhibition at 10 µM on recombinant PfMQO was found to be 65.6%. Further, at recombinant PfMQO (setting [3]), the IC50 was < 5 µM and 4.06 µM. Besides, the “Growth inhibition of parasite cells (result in words)” value (“Growth inhibition of parasite cells” below) in the data set with P. falciparum 3D7 strain is listed as “failed to inhibit the growth”.
Consider `N=C(N)Nc1ccc(-c2ccc(-c3ccc(NC(=N)N)cc3Cl)o2)c(Cl)c1` [MMV688179], for which, on recombinant PfMQO (setting [2]), the inhibition at 10 µM was found to be 76%. Besides, the half-inhibitory concentration (IC50) at recombinant PfMQO (setting [3]) was < 5 µM and 3.96 µM; with P. falciparum 3D7 strain (setting [4]), 0.46 µM; in the data set on ABS parasites, 590 nM. The “HepG2 cytotoxicity CC20” value in the data set on HepG2 is 6.8 µM. In addition, the “Activity against the stage IV gametocyte cells” value in data set [1] was “active”.
For `O=C(Nc1nnc(S)s1)c1cc(Br)ccc1Cl` [MMV676492], the inhibition at 10 µM at recombinant PfMQO (setting [2]) stood at 98.5%. In addition, the IC50 on recombinant PfMQO (setting [3]) was < 5 µM and 0.343 µM. For the same compound, in the data set with P. falciparum 3D7 strain, the “Growth inhibition of parasite cells” value was “failed to inhibit the growth”.
Consider `Cc1cc(C)cc(COc2ccc3c(C)c(CCC(=O)O)c(=O)oc3c2C)c1` [MMV676476], for which the inhibition at 10 µM at recombinant PfMQO is 63.2%. Besides, the half-inhibitory concentration (IC50) at recombinant PfMQO (setting [3]) was < 5 µM and 3.57 µM. The “Growth inhibition of parasite cells” value with P. falciparum 3D7 strain is reported as “failed to inhibit the growth”.
Turning to `COc1ccc(C2=NN(C3CCCCCC3)C(=O)C2(C)C)cc1OCCCCOc1ccc(-c2nnn[nH]2)cc1` [MMV690028], the 50% inhibitory concentration (IC50) on recombinant PfMQO (IC50 against recombinant PfMQO) was < 5 µM and 1.1 µM; in the data set with P. falciparum 3D7 strain (setting [4]), 6.05 µM. Moreover, the inhibition at 10 µM at recombinant PfMQO amounted to 86.7%.
Take `COc1ccc(C2=NN(C3CCCCCC3)C(=O)C3CC=CCC23)cc1OCCCCOc1ccc(-c2nn[nH]n2)cc1` (stereo not drawn) [MMV690027]: at recombinant PfMQO, the inhibition at 10 µM came out at 98.2%. Also, in the data set on P. falciparum 3D7 strain (3D7, 72 h), the concentration for half-maximal inhibition (IC50) is 16.2 µM.

Broadly, the inhibition is the change of the read-out against control, counted positive when it falls. By IC50 is commonly meant the point on the concentration scale where inhibition reaches its midpoint.
